Assay results as given in patent EP0425902A1, “Use of isosorbide 2-mononitrate in the preparation of pharmaceutical compositions for treating angina pectoris” (ISCOFAR Sas di Paolo E. Ghirardi, priority 1989, dated 1991).
Where “and” joins values, the source holds several entries; their conditions need not be identical. Identical values can stand only once. Entries after “also recorded” stand apart in the source; their conditions may differ.

Columns and labels:
[1] = tested on: isolated rabbit heart; assay: Vasodilatory effect on isolated rabbit heart with vasopressin-induced spasm (coronary perfusion pressure)
Description: All nitroderivatives induce a tolerance phenomenon but the degree of the lack of the vasodilatory effect was lesser in the case of isosorbide 2-nitroderivative. […] Isolated rabbit hearts and aortic strips were used as experimental model to evaluate drugs acting on coronary resistance and vascular contractility.
Vasodilatory effect was evaluated on isolated rabbit heart in presence of vasopressin-induced spasm by using concentration of 10⁻⁵M of the tested compounds.

[2] = tested on: cyclic GMP; assay: Cyclic GMP accumulation in laboratory tests
Text: It has been furthermore shown through the laboratory tests that no relationship between the amount of the measured cyclic guanine mono-phosphate (GMP) and the extent of the inhibitory effect can be observed.
In our experiments, the development of nitrate tolerance seems to be related to cyclic GMP accumulation, being greater in the case of NTG, thus confirming that SH groups consumption is the molecular mechanism responsible for this phenomenon.

[3] = tested on: rabbit aortic strips; assay: Induction of nitrate tolerance in rabbit aortic strips preincubated with nitroderivative
[4] = Clinical trial, ergometer bicycle effort test before and after two months of chronic 2MN treatment; conditions: human, in vivo
[5] = Acute treatment by tongue absorption, pulmonary artery pressure by cardiac catheter; conditions: in vivo
[6] = Long-period stability of active principle in tablets
[7] = Clinical trials of tongue absorption administration on onset of anginal attack; conditions: human, in vivo

Row | Structure (SMILES) | inhibition at 10 µM ([1]; Oryctolagus cuniculus, isolated rabbit heart, vasopressin-induced spasm, 10⁻⁵M, read-out: reduce coronary spasm (coronary perfusion pressure, CPP)) [%] | cyclic GMP accumulation / increase [2] | activity in reducing coronary perfusion pressure relative to other nitroderivatives [1] | degree of desensitization after induction of nitrate tolerance [3] | degree of tolerance induced [3] | Exercise time [4] | Max work tolerated (watt) [4] | S-T (mm) [4] | S-T Δ % [4] | anginal attacks, nitroglycerin consumption and arterial pressure [4] | tolerance after chronic treatment [4] | Activity commences after taking the drug [5] [min] | Activity lasts (average) [5] [min] | Commencement of activity [5] | Max decrease in pulmonary artery pressure % [5] | loss of active principle in the pharmaceutical forms (tablets) in the long period [6] | effect on anginal attack [7]
1 | O=[N+]([O-])OCC(CO[N+](=O)[O-])O[N+](=O)[O-] [NTG, nitroglycerin, reference compound] | 80 | greater |  |  |  |  |  |  |  |  |  |  |  |  |  |  | 
2 | O=[N+]([O-])O[C@H]1CO[C@H]2[C@@H]1OC[C@H]2O [2MN, isosorbide 2-mononitrate] |  | lesser increase | more active than 5MN and ISDN | significantly lower | lesser degree of tolerance | 8.6 ± 1.4 min and 8.9 ± 1.1 min | 144±36 watt and 148±36 watt | 1.5±0.7 mm and 1.8±0.9 mm | -29 (P<0.05) % and -25 (P<0.05) % | noted reduction | does not give rise to tolerance | 3 to 4 | 80 | 180 s and 250 s and 230 s and 160 s and 200 s and 210 s and 204.2 s | 20% and 38% and 30% and 27% and 31% and 40% and 29% and 30.7% | minimal | able to prevent anginal attack or to cause its rapid regression; also recorded: Analogous results
